This experiment has as its target T1, recombinant human glucagon receptor (Homo sapiens, UniProt P47871).
T1 construct: expressed in transfected cells; host or cells: CHO (Chinese hamster ovary) cells
Nature of the experiment: Inhibition of glucagon-stimulated intracellular cAMP assay. It counts as cell-based. The note with it: CHO cells expressing recombinant human glucagon receptor, stimulated with 300 pM glucagon, LANCE cAMP. As to the method:
Inhibition of Glucagon-Stimulated Intracellular cAMP Assay
Chinese hamster ovary (CHO) cells expressing the recombinant human glucagon receptor were harvested with the aid of non-enzymatic cell dissociation solution (GIBCO 13151-014). The cells were then pelleted and suspended in the stimulation buffer (1×HBSS, 5 mM Hepes, 0.1% BSA, pH7.4 in presence of complete protease inhibitor and phosphodiesterase inhibitor). The adenylate cyclase assay was conducted following the LANCE cAMP Kit (Perkin Elmer, AD0262) instructions. Briefly, cells were preincubated with anti-cAMP antibody in the stimulation buffer with a final concentration of 3% DMSO for 30 minutes and then stimulated with 300 pM glucagon for 45 minutes. The reaction was stopped by incubating with the detection buffer containing Europium chelate of the Eu-SA/Biotin-cAMP tracer for 20 hours. The fluorescence intensity emitted from the assay was measured at 665 nm using PheraStar instruments. […] Standard cAMP concentrations were conducted concurrently for conversion of fluorescence signal to cAMP level. Data was analyzed using GraphPad Prism. IC50 values were calculated using non-linear regression analysis assuming single site competition. […] Some of the compounds of the invention shown in the examples measured less than about 5 μM in this assay; other examples measured less than about 500 nM; others less than about 100 nM. […]

The structures appear in SMILES notation.

As usually defined, the IC50 is the midpoint of a concentration-inhibition curve.

T1 sequence (P47871 26-477): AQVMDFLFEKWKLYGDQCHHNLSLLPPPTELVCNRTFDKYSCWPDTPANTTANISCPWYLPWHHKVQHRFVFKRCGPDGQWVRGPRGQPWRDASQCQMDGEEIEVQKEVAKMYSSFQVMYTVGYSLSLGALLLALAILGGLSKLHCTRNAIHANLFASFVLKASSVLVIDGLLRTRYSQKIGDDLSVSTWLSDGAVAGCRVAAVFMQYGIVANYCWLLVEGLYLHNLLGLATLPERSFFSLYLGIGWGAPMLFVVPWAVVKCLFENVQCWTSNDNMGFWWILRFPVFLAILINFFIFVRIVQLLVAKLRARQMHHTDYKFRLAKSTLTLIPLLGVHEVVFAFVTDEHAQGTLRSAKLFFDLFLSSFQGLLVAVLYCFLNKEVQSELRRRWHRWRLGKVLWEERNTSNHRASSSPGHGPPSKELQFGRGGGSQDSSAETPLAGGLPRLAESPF

As for `CCC[C@H](c1ccc(C(=O)NCc2nn[nH]n2)cc1)N1C(=O)C(c2cccc(Cl)c2)=NC12CCC(C(C)(C)C)CC2` (some centres unmarked) [Example 1.156], the IC50 turned out to be 452 nM.

Take `CC(C)(C)C1CCC2(CC1)N=C(c1ccc(F)cc1)C(=O)N2[C@@H](c1ccc(C(=O)NCCC(=O)O)cc1)C1CC1` (some centres unmarked) [Example 1.212]: the IC50 came to 57 nM.

The values above are taken from patent publication US8361959B2, “Spiro-imidazolone derivatives as glucagon receptor antagonists” (Merck Sharp & Dohme Corp., priority 2008, dated 2013).
